Test results taken from ChEMBL document CHEMBL1129154, “()-SCH 57939: synthesis and pharmacological properties of a potent, metabolically stable cholesterol absorption inhibitor” (1996).

How the values were obtained:
Type in all cases: functional, Cricetulus griseus
Cricetinae gen. sp. [1] = test: Compound was evaluated for the percent reduction in liver cholesterol ester levels in cholesterol fed hamster model at […]
Cricetinae gen. sp. [2] = test: Compound was evaluated in vivo for the cholesterol lowering activity in hamster model
Cricetinae gen. sp. [3] = test: Compound was evaluated for the percent reduction in liver cholesterol ester levels in cholesterol fed hamster model at 0.3 mg/kg
Cricetinae gen. sp. [4] = test: Compound was evaluated for the percent reduction in liver cholesterol ester levels in cholesterol fed hamster model at 1 mg/kg
Cricetinae gen. sp. [5] = test: Compound was evaluated for the percent reduction in liver cholesterol ester levels in cholesterol fed hamster model at 10 mpk
Cricetinae gen. sp. [6] = test: Compound was evaluated for the percent reduction in liver cholesterol ester levels in cholesterol fed hamster model at 10 mg/kg

O=C1[C@@H]([C@H](O)COc2ccc(F)cc2)[C@@H](c2ccc(O)cc2)N1c1ccc(F)cc1 gave a L/CE (Cricetinae gen. sp. [1]) of 0%.

For O=C1[C@H]([C@H](O)COc2ccc(F)cc2)[C@@H](c2ccc(O)cc2)N1c1ccc(F)cc1, the ED50 (Cricetinae gen. sp. [2]) was 0.27 MPK and the L/CE (Cricetinae gen. sp. [3]) was -70%.

Work on COc1ccc([C@@H]2[C@@H]([C@H](O)COc3ccc(F)cc3)C(=O)N2c2ccccc2)cc1 yielded an ED50 (Cricetinae gen. sp. [2]; Cricetinae gen. sp., read-out: ED50) of 0.3 mg/kg and a L/CE (Cricetinae gen. sp. [4]; 1 mg/kg) of -84%.

O=C1[C@H]([C@@H](O)COc2ccc(F)cc2)[C@H](c2ccc(O)cc2)N1c1ccc(F)cc1 (racemic) showed a L/CE (Cricetinae gen. sp. [5]) of -39%.

COc1ccc([C@@H]2N(c3ccccc3)C(=O)[C@]2(C)[C@@H](O)COc2ccc(F)cc2)cc1 (racemic) showed a L/CE (Cricetinae gen. sp. [6]) of -48%.

O=C1[C@H]([C@H](O)COc2ccc(F)cc2)[C@@H](c2ccc(O)cc2)N1c1ccc(F)cc1 (racemic) showed an ED50 (Cricetinae gen. sp. [2]) of 0.7 MPK and a L/CE (Cricetinae gen. sp. [4]) of -38%.

COc1ccc([C@@H]2[C@@H]([C@H](O)COc3ccc(F)cc3)C(=O)N2c2ccccc2)cc1 (racemic) showed a L/CE (Cricetinae gen. sp. [4]; 1 mg/kg) of -57%.
